Measurements reported in patent US20210138039A1, “PAIN RESPONSE MEDIATOR COMPOSITIONS AND METHODS FOR MAKING AND USING SAME” (Q-STATE BIOSCIENCES, INC., priority 2017, published 2021).
No end group written: not given here.

Columns and labels:
[1] = test system: E18 rat hippocampal neurons; test: High-throughput fluorescent voltage recording, 96-well plate (FIGS. 30-34); type: cell-based; details: 1 μM; neurons cultured for 14 days; blue light stimulus
Excerpt: FIGS. 30-34 show high-throughput validation for screening. E18 rat hippocampal neurons cultured for 14 days.
The blue light stimulus is shown below.
FIG. 31 is a raster plot showing spikes from columns of wells.
Vehicle wells (even columns, green) and ML213 wells (odd columns, red) are easily distinguished. Even numbered columns are all green; odd numbered columns are all read.

mouse DRG neurons = type: cell-based
[2] = test system: iPS cell-derived sensory neurons; type: cell-based, human
animal models = details: subcutaneous injection; cited from earlier work
rats = details: injected in rats; cited from earlier work
humans = details: injection in humans; cited from earlier work
Cultured DRG neurons = test: Firing phenotypes of cultured DRG neurons; type: cell-based, rodent

For `Cc1cc(C)c(NC(=O)C2CC3CCC2C3)c(C)c1` (stereo not shown) [ML213], the firing rate [1] was “dramatically reduces firing rate in all wells tested”.

For `NC1=N[C@H](O)[C@H]2[C@H]3O[C@]4(O)O[C@@H]([C@@H](O)[C@@]2(N1)[C@@H]4O)[C@]3(O)CO` [TTX, tetrodotoxin], the after-hyperpolarization depth (mouse DRG neurons) was “decreases”, the “effect on the pain mediator composition-induced firing” value (mouse DRG neurons) was “blocks the effect of the pain mediator composition” and the spike width (mouse DRG neurons) was “increases”. The “spiking in response to the blue stimulus” value [2] was “almost all spiking is blocked”.

In the case of “endothelin 1 (CSCSSLMDKECVYFCHLDIIW; ends and bridges not checked; cysteine pairing not given here; UniProt P05305 53-73, looked up) [ET-1]”, the “sensitization (paw withdrawal threshold)” value (animal models) is given as “local sensitization”.

In the case of “IL-6: an inflammatory cytokine found to be elevated around tumors”, the pain on injection (rats) is given as “causes local pain”.

In the case of `Nc1ncnc2c1ncn2[C@@H]1O[C@H](COP(=O)(O)OP(=O)(O)OP(=O)(O)O)[C@@H](O)[C@H]1O` [ATP, adenosine triphosphate], the “pain sensitivity on injection” value (humans) is given as “increased pain sensitivity”.

For TNF-a, the pain on injection (rats) is given as “cause pain”.

For `COc1cc(CNC(=O)CCCC/C=C/C(C)C)ccc1O` [capsaicin], the “firing phenotype in response to capsaicin” value (Cultured DRG neurons) was “acute response”.
